# Assay results published in patent US8981111B2 (priority 2008, dated 2015).
# Experiment: log P (HPLC/MS data of the preparation examples)
# Details: LC-MS, method [b]: pH 2.7 with 0.1% formic acid in water and acetonitrile, linear gradient 10% to 95% acetonitrile
row,SMILES,log p
1,Cn1ncnc1C(=NOCc1cccc(NC(=O)Cc2cccc(Cl)c2)n1)c1ccccc1 [Example 313],3.5^[b]
2,C=CCC(=O)Nc1cccc(CON=C(c2ccccc2)c2ncnn2C)n1 [Example 314],2.51^[b]
3,CC(C)COC(=O)Nc1cccc(CON=C(c2ccccc2)c2ncnn2C)n1 [Example 316],3.52^[b]
4,CC(C)CCOC(=O)Nc1cccc(CON=C(c2ccccc2)c2ncnn2C)n1 [Example 317],3.9^[b]
5,CCC(C)COC(=O)Nc1cccc(CON=C(c2ccccc2)c2nccn2C)n1 (stereo not drawn) [Example 324],2.52^[b]
6,CC(C)COC(=O)Nc1cccc(CON=C(c2ccccc2)c2nccn2C)n1 [Example 325],2.21^[b]
7,CC(C)CCOC(=O)Nc1cccc(CON=C(c2ccccc2)c2nccn2C)n1 [Example 326],2.51^[b]
8,Cn1ccnc1C(=NOCc1cccc(NC(=O)OCC(Cl)(Cl)Cl)n1)c1ccccc1 [Example 327],2.45^[b]
9,C=CCCOC(=O)Nc1cccc(CON=C(c2ccccc2)c2nccn2C)n1 [Example 328],2.02^[b]
10,CC(C)CCC(=O)Nc1cccc(CON=C(c2ccccc2)c2nccn2C)n1 [Example 329],2.15^[b]
11,C#CCOC(=O)Nc1cccc(CON=C(c2ccccc2)c2nccn2C)n1 [Example 330],1.66^[b]
12,Cn1ccnc1C(=NOCc1cccc(NC(=O)CCc2ccc(Cl)s2)n1)c1ccccc1 [Example 331],2.49^[b]
13,C#CCCOC(=O)Nc1cccc(CON=C(c2ccccc2)c2nccn2C)n1 [Example 332],1.78^[b]
14,CC(C(=O)Nc1cccc(CON=C(c2ccccc2)c2nccn2C)n1)c1ccccc1 (stereo not drawn) [Example 333],2.21^[b]
15,CCCCSC(=O)Nc1cccc(CON=C(c2ccccc2)c2nccn2C)n1 [Example 334],2.58^[b]
16,Cn1ccnc1C(=NOCc1cccc(NC(=O)CCc2ccc(Cl)s2)n1)c1cccc(F)c1 [Example 335],2.77^[b]
17,C#CCCOC(=O)Nc1cccc(CON=C(c2cccc(F)c2)c2nccn2C)n1 [Example 336],1.98^[b]
18,COC(C(=O)Nc1cccc(CON=C(c2ccccc2)c2nccn2C)n1)c1ccccc1 (stereo not drawn) [Example 337],2.15^[b]
19,Cn1ccnc1C(=NOCc1cccc(NC(=O)C2CCCCO2)n1)c1ccccc1 (stereo not drawn) [Example 338],1.93^[b]
20,COCCOC(=O)Nc1cccc(CON=C(c2ccccc2)c2nccn2C)n1 [Example 339],1.34^[b]
21,Cn1ccnc1C(=NOCc1cccc(NC(=O)C2CCCCO2)n1)c1cccc(F)c1 (stereo not drawn) [Example 340],2.17^[b]
22,COCCOC(=O)Nc1cccc(CON=C(c2cccc(F)c2)c2nccn2C)n1 [Example 341],1.66^[b]
23,CCCCSC(=O)Nc1cccc(CON=C(c2cccc(F)c2)c2nccn2C)n1 [Example 342],2.88^[b]
24,Cn1ccnc1C(=NOCc1cccc(NC(=O)OCCF)n1)c1cccc(F)c1 [Example 343],1.75^[b]

row,SMILES,log p
1,CCC(C)COC(=O)Nc1cccc(CON=C(c2cccc(F)c2)c2nccn2C)n1 (stereo not drawn) [Example 344],2.82^[b]
2,CC(C)COC(=O)Nc1cccc(CON=C(c2cccc(F)c2)c2nccn2C)n1 [Example 345],2.51^[b]
3,CC(C)CCOC(=O)Nc1cccc(CON=C(c2cccc(F)c2)c2nccn2C)n1 [Example 346],2.82^[b]
4,Cn1ccnc1C(=NOCc1cccc(NC(=O)OCC(Cl)(Cl)Cl)n1)c1cccc(F)c1 [Example 347],2.73^[b]
5,CC(C)CCC(=O)Nc1cccc(CON=C(c2cccc(F)c2)c2nccn2C)n1 [Example 348],2.42^[b]
6,COC(C(=O)Nc1cccc(CON=C(c2cccc(F)c2)c2nccn2C)n1)c1ccccc1 (stereo not drawn) [Example 349],2.42^[b]
7,"Cc1ncoc1C(=NOCc1csc(N)n1)c1ccccc1 [Example 351, 4-[({[(4-methyl-1,3-oxazol-5-yl)(phenyl)methylene]amino-}oxy)methyl]-1,3-thiazol-2-amine]",1.46^[b]
8,Cc1ncoc1C(=NOCc1cccc(N2C(=O)c3ccccc3C2=O)n1)c1ccccc1 [Example 353],3.09^[b]
9,CCCCC#Cc1cccc(CON=C(c2ccccc2)c2nncn2C)n1 [Example 354],3.23^[b]
10,COc1ccc(C(=NOCc2cccc(N3C(=O)c4ccccc4C3=O)n2)c2ncc(C(F)(F)F)cc2Cl)cc1Br [Example 356],4.78^[b]
11,COc1ccc(C(=NOCc2csc(N)n2)c2ncc(C(F)(F)F)cc2Cl)cc1Br [Example 357],2.8^[b]
12,COc1ccc(C(=NOCc2cccc(N)n2)c2ncc(C(F)(F)F)cc2Cl)cc1Br [Example 358],2.54^[b]
13,COc1ccc(C(=NOCc2cccc(NC(=O)C(C)(C)C)n2)c2ncc(C(F)(F)F)cc2Cl)cc1Br [Example 359],5.2^[b]
14,COc1ccc(C(=NOCc2cccc(NC(=O)C3CC3)n2)c2ncc(C(F)(F)F)cc2Cl)cc1Br [Example 360],4.54^[b]
15,COc1ccc(C(=NOCc2cccc(NC(=O)C(F)(F)F)n2)c2ncc(C(F)(F)F)cc2Cl)cc1Br [Example 361],4.97^[b]
16,COCCOCC(=O)Nc1cccc(CON=C(c2ccc(OC)c(Br)c2)c2ncc(C(F)(F)F)cc2Cl)n1 [Example 362],4.51^[b]
17,CCCCCOC(=O)Nc1cccc(CON=C(c2ccc(OC)c(Br)c2)c2ncc(C(F)(F)F)cc2Cl)n1 [Example 363],6.13^[b]
18,COc1ccc(C(=NOCc2cccc(NC(=O)c3ccccc3)n2)c2ncc(C(F)(F)F)cc2Cl)cc1Br [Example 364],5.23^[b]
19,COc1ccc(C(=NOCc2cccc(NC(=O)Cc3ccccc3)n2)c2ncc(C(F)(F)F)cc2Cl)cc1Br [Example 365],5.08^[b]
20,CCCCCCCCC(=O)Nc1cccc(CON=C(c2ccc(OC)c(Br)c2)c2ncc(C(F)(F)F)cc2Cl)n1 [Example 366],6.65^[b]
21,COc1ccc(C(=NOCc2cccc(NC(=O)C(C)C)n2)c2ncc(C(F)(F)F)cc2Cl)cc1Br [Example 367],4.73^[b]
22,CCCCCC(=O)Nc1cccc(CON=C(c2ccc(OC)c(Br)c2)c2ncc(C(F)(F)F)cc2Cl)n1 [Example 368],5.44^[b]
23,CCCCCCC(=O)Nc1cccc(CON=C(c2ccc(OC)c(Br)c2)c2ncc(C(F)(F)F)cc2Cl)n1 [Example 369],5.82^[b]
24,COc1ccc(C(=NOCc2cccc(NC(=O)CC(C)C)n2)c2ncc(C(F)(F)F)cc2Cl)cc1Br [Example 370],5.03^[b]

# Same assay, conditions: reversed phase HPLC column, pH 2.7
row,SMILES,chromatographic logP
1,"CCCCCC(=O)Nc1cccc(CON=C(c2ccccc2)c2ocnc2C)n1 [Example 320, N-{6-[({[(4-methyl-1,3-oxazol-5-yl)(phenyl)methylene]amino}oxy)methyl]pyridin-2-yl}hexanamide]",3.94
2,"CCCCCOC(=O)Nc1nc(CON=C(c2ccccc2)c2ocnc2C)cs1 [Example 321, pentyl{4-[({[(4-methyl-1,3-oxazol-5-yl)(phenyl)methylene]amino}oxy)methyl]-1,3-thiazol-2-yl}carbamate]",4.09
3,"Cc1ncoc1C(=NOCc1cccc(N2C(=O)c3ccccc3C2=O)n1)c1ccccc1 [Example 352, 2-{6-[({[(4-methyl-1,3-oxazol-5-yl)(phenyl)methylene]amino}oxy)methyl]pyridin-2-yl}-1H-isoindole-1,3(2H)-dione]",3.25
